The text below walks through data of patent publication US7417068B2, “EP4 receptor antagonists” (Asterand UK Limited, priority 2003, dated 2008).

For one experiment, the target named is T1, human EP2 receptor (Homo sapiens, UniProt P43116).
T1 construct: expressed in transfected cells
Nature of the experiment: Binding ability to human EP receptors ([3H]PGE2 displacement), EP2. As to conditions: membranes from cells stably transfected with human EP2 receptor; 3 nM [3H]PGE2; Cheng-Prusoff from IC50; read-out: pKi EP2 (converted). The procedure: (§1) Membranes were prepared from cells stably transfected with human EP receptor cDNA. In brief, cells were cultured to confluency, scraped from culture flasks, and centrifuged (800 g, 8 minutes, 4° C.). Cells were twice washed in ice cold homogenisation buffer containing 10 mMTris-HCl, 1 mM EDTA.2Na, 250 mM sucrose, 1 mM PMSF, 0.3 mM indomethacin, pH 7.4, homogenised and re-centrifuged as before. The supernatant was stored on ice and pellets re-homogenised and re-spun. Supernatants were pooled and centrifuged at 40000 g, 10 minutes, 4° C. Resultant membrane pellets were stored at −80° C. until use.
(§2) For assay, membranes expressing human EP4, EP3, EP2 or EP1 receptors were incubated in Millipore (MHVBN45) plates containing assay buffer, radiolabelled [^3H]PGE2 and 0.1 to 10 000 nM concentrations of compounds. Incubations were performed at suitable temperatures and for suitable times to allow equilibrium to be reached. Non-specific binding was determined in the presence of 10 uM PGE2. Bound and free radiolabel was separated by vacuum manifold filtration using appropriate wash buffers, and bound radiolabel was determined by scintillation counting. Constituents of each of the buffers are included in table 1 below.
(§3) The affinity or pKi of each compound for each receptor was calculated from the concentration causing 50% radioligand displacement (IC50) using the Cheng-Prusoff equation: […]

The target in another experiment is T2, human EP3 receptor (Homo sapiens, UniProt P43115).
T2 construct: expressed in transfected cells
T2 sequence (P43115 1-390): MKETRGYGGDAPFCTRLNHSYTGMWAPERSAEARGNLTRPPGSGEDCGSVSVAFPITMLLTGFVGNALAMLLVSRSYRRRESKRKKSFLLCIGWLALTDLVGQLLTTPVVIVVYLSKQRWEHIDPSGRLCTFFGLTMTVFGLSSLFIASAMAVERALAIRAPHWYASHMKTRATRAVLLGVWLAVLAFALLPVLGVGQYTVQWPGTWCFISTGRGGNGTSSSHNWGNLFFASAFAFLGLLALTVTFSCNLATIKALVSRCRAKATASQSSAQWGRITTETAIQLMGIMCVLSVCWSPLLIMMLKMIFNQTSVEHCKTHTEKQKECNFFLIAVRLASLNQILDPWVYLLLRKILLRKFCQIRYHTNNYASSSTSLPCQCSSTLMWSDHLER
Nature of the experiment: Binding ability to human EP receptors ([3H]PGE2 displacement), EP3. The note with it: membranes from cells stably transfected with human EP3 receptor; 2.5 nM [3H]PGE2; Cheng-Prusoff from IC50; read-out: pKi EP3 (converted). The procedure:
as §1, §2, §3

The target in the next experiment is T3, human EP4 receptor (Homo sapiens, UniProt P35408).
T3 construct: expressed in transfected cells
Nature of the experiment: Binding ability to human EP receptors ([3H]PGE2 displacement), EP4. The note with it: membranes from cells stably transfected with human EP4 receptor; 1 nM [3H]PGE2; Cheng-Prusoff from IC50; read-out: pKi EP4 (converted). The procedure:
as §1, §2, §3

T1 sequence (P43116 whole entry): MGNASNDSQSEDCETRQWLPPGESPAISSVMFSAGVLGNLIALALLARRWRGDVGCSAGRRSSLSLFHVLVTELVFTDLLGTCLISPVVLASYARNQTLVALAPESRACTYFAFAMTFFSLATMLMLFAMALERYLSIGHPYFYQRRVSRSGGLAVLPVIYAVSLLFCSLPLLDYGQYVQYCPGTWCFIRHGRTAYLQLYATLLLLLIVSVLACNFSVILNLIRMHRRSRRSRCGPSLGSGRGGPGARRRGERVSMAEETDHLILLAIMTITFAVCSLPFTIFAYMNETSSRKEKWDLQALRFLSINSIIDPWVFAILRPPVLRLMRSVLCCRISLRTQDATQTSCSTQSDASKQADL
T3 sequence (P35408 whole entry): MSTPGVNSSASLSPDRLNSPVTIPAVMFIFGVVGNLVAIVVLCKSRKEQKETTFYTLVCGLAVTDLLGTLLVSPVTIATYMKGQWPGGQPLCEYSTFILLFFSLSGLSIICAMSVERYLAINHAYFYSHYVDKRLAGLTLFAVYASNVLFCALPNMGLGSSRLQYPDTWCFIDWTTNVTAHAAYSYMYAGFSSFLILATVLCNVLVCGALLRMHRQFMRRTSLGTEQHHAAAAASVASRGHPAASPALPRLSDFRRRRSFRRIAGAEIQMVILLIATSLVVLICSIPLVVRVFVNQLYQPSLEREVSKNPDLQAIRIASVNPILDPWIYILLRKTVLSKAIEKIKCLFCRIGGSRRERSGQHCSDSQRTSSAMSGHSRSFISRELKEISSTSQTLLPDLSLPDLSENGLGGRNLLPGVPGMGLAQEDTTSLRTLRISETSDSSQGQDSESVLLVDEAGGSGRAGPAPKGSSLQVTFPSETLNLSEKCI

With `COc1ccc(-c2cc(C(=O)Nc3ccc(CC(=O)O)cc3)c(C(F)(F)F)o2)cc1` [Compound 4, (4-{[5-(4-Methoxy-phenyl)-2-trifluoromethyl-furan-3-carbonyl]-amino}-phenyl)-acetic acid], the Ki on human EP2 receptor was above 10 µM; on human EP3 receptor, above 10 µM; on human EP4 receptor it was below 10 µM.
For the molecule `COc1ccc(-c2cc(C(=O)Nc3ccc(CC(=O)O)cc3)c(C)o2)cc1` [Compound 6, (4-{[5-(4-Methoxy-phenyl)-2-methyl-furan-3-carbonyl]-amino}-phenyl)-acetic acid], the results for the Ki on human EP2 receptor, at human EP3 receptor and at human EP4 receptor were above 10 µM, above 10 µM and below 1 µM, respectively.
`O=C(O)Cc1ccc(NC(=O)c2coc(-c3ccccc3)c2)cc1` [Compound 10, {4-[(5-Phenyl-furan-3-carbonyl)-amino]-phenyl}-acetic acid]: the figures for the Ki on human EP2 receptor, on human EP3 receptor and on human EP4 receptor were above 3.16 µM, above 10 µM and below 1 µM, respectively.
Consider `O=C(O)Cc1ccc(NC(=O)c2coc(-c3ccc(OC(F)F)cc3)c2)cc1` [Compound 13, (4-{[5-(4-Difluoromethoxy-phenyl)-furan-3-carbonyl]-amino}-phenyl)-acetic acid], for which the Ki was above 10 µM at human EP2 receptor, above 10 µM on human EP3 receptor and below 1 µM on human EP4 receptor.
Turning to `Cc1oc(-c2ccc(OC(F)F)cc2)cc1C(=O)Nc1ccc(CC(=O)O)cc1` [Compound 18, (4-{[5-(4-Difluoromethoxy-phenyl)-2-methyl-furan-3-carbonyl]-amino}-phenyl)-acetic acid], the Ki is above 3.16 µM at human EP2 receptor, above 10 µM on human EP3 receptor and below 1 µM at human EP4 receptor.
In the case of `Cc1cc(C(=O)NCc2ccc(C(=O)O)cc2)c(-c2ccccc2)o1` [Compound 20, 4-{[(5-Methyl-2-phenyl-furan-3-carbonyl)-amino]-methyl}-benzoic acid], the Ki on human EP2 receptor is above 10 µM; at human EP3 receptor it was above 10 µM; on human EP4 receptor, below 10 µM.
Take `Cc1oc(-c2ccccc2)cc1C(=O)Nc1ccc(CC(=O)NS(=O)(=O)c2ccccc2)cc1` [Compound 21, 2-Methyl-5-phenyl-furan-3-carboxylic acid [4-(2-benzenesulfonylamino-2-oxo-ethyl)-phenyl]-amide]: the Ki at human EP2 receptor is above 1 µM; at human EP3 receptor, above 10 µM; at human EP4 receptor, below 0.1 µM.
As for `COc1ccc(-c2cc(C(=O)Nc3ccc(CC(=O)NS(=O)(=O)c4ccccc4)cc3)c(C(F)(F)F)o2)cc1` [Compound 22, 5-(4-Methoxy-phenyl)-2-trifluoromethyl-furan-3-carboxylic acid [4-(2-benzenesulfonylamino-2-oxo-ethyl)-phenyl]-amide], the Ki on human EP2 receptor was above 1 µM; on human EP3 receptor it was above 10 µM; on human EP4 receptor, below 1 µM.
The matching figures for `COc1ccc(-c2cc(C(=O)Nc3ccc(CC(=O)NS(=O)(=O)c4ccccc4)cc3)c(C)o2)cc1` [Compound 23, 5-(4-Methoxy-phenyl)-2-methyl-furan-3-carboxylic acid [4-(2-benzenesulfonylamino-2-oxo-ethyl)-phenyl]-amide]: above 1 µM, above 10 µM and below 0.1 µM.
The matching figures for `Cc1ccccc1S(=O)(=O)NC(=O)Cc1ccc(NC(=O)c2coc(-c3ccccc3)c2)cc1` [Compound 24, 5-Phenyl-furan-3-carboxylic acid {4-[2-oxo-2-(toluene-2-sulfonylamino)-ethyl]-phenyl}-amide]: above 0.1 µM, above 10 µM and below 1 µM.
As to `Cc1oc(-c2ccc(OC(F)F)cc2)cc1C(=O)Nc1ccc(CC(=O)NS(=O)(=O)c2ccccc2)cc1` [Compound 25, 5-(4-Difluoromethoxy-phenyl)-2-methyl-furan-3-carboxylic acid [4-(2-benzenesulfonylamino-2-oxo-ethyl)-phenyl]-amide], the Ki on human EP2 receptor was above 1 µM; at human EP3 receptor, above 10 µM; at human EP4 receptor, below 0.1 µM.
The matching figures for `Cc1ccccc1S(=O)(=O)NC(=O)Cc1ccc(NC(=O)c2cc(-c3ccc(OC(F)F)cc3)oc2C)cc1` [Compound 26, 5-(4-Difluoromethoxy-phenyl)-2-methyl-furan-3-carboxylic acid {4-[2-oxo-2-(toluene-2-sulfonylamino)-ethyl]-phenyl}-amide]: above 0.316 µM, above 10 µM and below 0.1 µM.
The matching figures for `CCCS(=O)(=O)NC(=O)Cc1ccc(NC(=O)c2cc(-c3ccc(OC(F)F)cc3)oc2C)cc1` [Compound 27, 5-(4-Difluoromethoxy-phenyl)-2-methyl-furan-3-carboxylic acid {4-[2-oxo-2-(propane-1-sulfonylamino)-ethyl]-phenyl}-amide]: above 10 µM, above 10 µM and below 1 µM.
Regarding `Cc1noc(C)c1S(=O)(=O)NC(=O)Cc1ccc(NC(=O)c2cc(-c3ccc(OC(F)F)cc3)oc2C)cc1` [Compound 28, 5-(4-Difluoromethoxy-phenyl)-2-methyl-furan-3-carboxylic acid {4-[2-(3,5-dimethyl-isoxazole-4-sulfonylamino)-2-oxo-ethyl]-phenyl}-amide], the Ki is above 10 µM on human EP2 receptor, above 10 µM on human EP3 receptor and below 1 µM on human EP4 receptor.
In the case of `Cc1oc(-c2ccc(OC(F)F)cc2)cc1C(=O)Nc1ccc(CC(=O)NS(=O)(=O)c2cccs2)cc1` [Compound 29, 5-(4-Difluoromethoxy-phenyl)-2-methyl-furan-3-carboxylic acid {4-[2-oxo-2-(thiophene-2-sulfonylamino)-ethyl]-phenyl}-amide], the Ki was above 3.16 µM on human EP2 receptor, above 10 µM at human EP3 receptor and below 0.1 µM on human EP4 receptor.
The matching figures for `Cc1ccc(S(=O)(=O)NC(=O)Cc2ccc(NC(=O)c3cc(-c4ccc(OC(F)F)cc4)oc3C)cc2)nc1` [Compound 30, 5-(4-Difluoromethoxy-phenyl)-2-methyl-furan-3-carboxylic acid {4-[2-(5-methyl-pyridine-2-sulfonylamino)-2-oxo-ethyl]-phenyl}-amide]: above 1 µM, above 10 µM and below 0.1 µM.
The matching figures for `Cc1oc(-c2ccc(OC(F)F)cc2)cc1C(=O)Nc1ccc(CC(=O)NS(=O)(=O)Cc2ccccc2)cc1` [Compound 31, 5-(4-Difluoromethoxy-phenyl)-2-methyl-furan-3-carboxylic acid [4-(2-oxo-2-phenylmethanesulfonylamino-ethyl)-phenyl]-amide]: above 1 µM, above 10 µM and below 0.1 µM.
For `Cc1oc(-c2ccc(OC(F)F)cc2)cc1C(=O)Nc1ccc(CC(=O)NS(=O)(=O)c2ccccc2C(F)(F)F)cc1` [Compound 32, 5-(4-Difluoromethoxy-phenyl)-2-methyl-furan-3-carboxylic acid {4-[2-oxo-2-(2-trifluoromethyl-benzenesulfonylamino)-ethyl]-phenyl}-amide], the Ki at human EP2 receptor was above 3.16 µM; at human EP3 receptor it was above 3.16 µM; on human EP4 receptor it was below 0.1 µM.
For `Cc1oc(-c2ccc(OC(F)F)cc2)cc1C(=O)Nc1ccc(CC(=O)NS(=O)(=O)c2ccc(O)cc2)cc1` [Compound 35, 5-(4-Difluoromethoxy-phenyl)-2-methyl-furan-3-carboxylic acid {4-[2-(4-hydroxy-benzenesulfonylamino)-2-oxo-ethyl]-phenyl}-amide], the values for the Ki at human EP2 receptor, at human EP3 receptor and at human EP4 receptor were above 3.16 µM, above 10 µM and below 0.1 µM, respectively.
In the case of `Cc1oc(-c2ccc(OC(F)F)cc2)cc1C(=O)Nc1ccc(CC(=O)NS(=O)(=O)c2ccccc2F)cc1` [Compound 36, 5-(4-Difluoromethoxy-phenyl)-2-methyl-furan-3-carboxylic acid {4-[2-(2-fluoro-benzenesulfonylamino)-2-oxo-ethyl]-phenyl}-amide], the Ki was above 1 µM on human EP2 receptor, above 10 µM at human EP3 receptor and below 0.1 µM on human EP4 receptor.
